The text below walks through data of patent publication US20240016777A1, “COMPOUNDS AND METHODS FOR TREATING VIRAL INFECTIONS” (priority 2020, published 2024).

The structures appear in SMILES notation. pIC50: −log10 of the molar value. Like-named read-outs stand apart in the source and are kept apart here.

One data set has as its target SARS-CoV-2 M^pro (Severe acute respiratory syndrome coronavirus 2 (2019-nCoV) (SARS-CoV-2), UniProt P0DTD1). The experiment in a line: biochemical.
In data set [1] the target is T1, Mpro (Severe acute respiratory syndrome coronavirus 2 (2019-nCoV) (SARS-CoV-2), UniProt P0DTD1). As to the kind of experiment: Label free mass spectrometry assay of Mpro substrate cleavage. The class given is biochemical. The settings on record: 50 μM concentration.
Data set [2] has as its target T1, Mpro. In kind it is biochemical. The settings on record: jump dilution.
Data set [3] relates to SARS-CoV-2. The settings on record: human ACE2 transgenic mouse, 50-200 mg/kg, crystal form; cited from earlier work.
Data set [4] relates to SARS-CoV-2. The experiment in a line: Vero E6-based SARS-CoV-2 replication assay (immunofluorescence of nucleocapsid protein). The class given is cell-based. The settings on record: Vero E6 cells.
In data set [5] the test system is Vero E6 cells. The experiment in a line: Toxicity in Vero E6 cells / cell culture.
The test system of data set [6] is Vero E6 cells.
[7] abbreviates: compound at 17 μM, duplicates, 20 min pre-incubation, read-out: Activity (% enzyme activity by fluorescence relative to initial enzyme activity).
[8] abbreviates: read-out: Activity (% enzyme activity by fluorescence relative to initial enzyme activity), compound at 17 μM, duplicates, 20 min pre-incubation.
[9] abbreviates: compounds evaluated at 0.015-300 μM, read-out: IC50.

By pIC50 is commonly meant the negative decadic logarithm of the IC50, by convention in mol/L. `O=c1c(-c2c(O)cc(O)c3c(=O)cc(-c4ccc(O)cc4)oc23)c(-c2ccc(O)cc2)oc2cc(O)cc(O)c12` [3,8′-Biapigenin]: the pIC50 on SARS-CoV-2 M^pro (IC50 for inhibition of Mpro) was 4.82 to 5.30. Moreover, at Mpro [1], the “Inhibition of Mpro activity (mass spectrometry)” value (from here on “Inhibition of Mpro activity”) is reported as “completely inhibited”.

Consider `O=c1cc(-c2ccc(O)c(-c3c(O)cc(O)c4c(=O)cc(-c5ccc(O)cc5)oc34)c2)oc2cc(O)cc(O)c12` [Amentoflavone], for which the negative logarithm of the IC50 (pIC50) at SARS-CoV-2 M^pro (IC50, compounds evaluated at 0.015-300 μM) was 5.10; at SARS-CoV-2 M^pro (IC50 for inhibition of Mpro), 4.82 to 5.30. For the same compound, the remaining activity at 17 µM on SARS-CoV-2 M^pro (setting [7]) lay in the range of 10 to 80%. Also, the “Reversibility of Mpro inhibition by dilution” value at Mpro [2] is “completely reversible”. Moreover, the “Inhibition of Mpro activity” value on Mpro [1] is “completely inhibited”.

In the case of `O=c1cc(-c2ccccc2)oc2cc(O)c(O)c(O)c12` [Baicalein], in the data set on SARS-CoV-2 [3], the “Body weight after SARS-CoV-2 infection” value was “prevented reduction in body weight” and the “Lung injury resulting from SARS-CoV-2 infection” value is given as “decreased lung injury”. Further, the “Inhibition of SARS-CoV-2 replication (in words)” value (“Inhibition … (in words)” below) in the data set with SARS-CoV-2 [4] was “antiviral activity”.

`COc1cc(-c2oc3cc(OC(C)=O)c(OC)c(OC(C)=O)c3c(=O)c2OC)ccc1OC(C)=O` [Jaceidin triacetate]: the Toxicity in cells result in the data set on Vero E6 cells [5] was “toxic”. Also, the “Mpro inhibitory activity (comparison in words)” value (shortened to “Mpro inhibitory activity”) on SARS-CoV-2 M^pro was “comparable to or better than the previously described Mpro inhibitors baicalein and myricetin”. Also, at SARS-CoV-2 M^pro (setting [7]), the remaining activity at 17 µM was below 10%. Also, on SARS-CoV-2 M^pro (read-out: IC50 for inhibition of Mpro), the pIC50 is 4.82 to 5.30. In addition, the “Inhibition of Mpro activity” value at Mpro [1] is “completely inhibited”.

As to `CC(C)=CCCC1(C)C=Cc2c(O)ccc(-c3oc4cc(O)cc(O)c4c(=O)c3CC=C(C)C)c2O1` (stereo not shown) [Sanggenone K], at SARS-CoV-2 M^pro (setting [8]), the remaining activity at 17 µM was above 80%.

Turning to `CC(C)=CCc1c(O)cc2c(c1O)C(=O)[C@H](O)[C@@H](c1ccc(O)cc1)O2` [Shuterin], the remaining activity at 17 µM at SARS-CoV-2 M^pro (setting [8]) was above 80%.

On to `COc1cc(O)c(CC=C(C)C)c2oc(-c3ccc(O)cc3)c(O)c(=O)c12` [Sophoflavescenol], for which the remaining activity at 17 µM at SARS-CoV-2 M^pro (setting [8]) is above 80%.

Regarding `CC(C)=CCc1c(O)cc(O)c2c1OC(c1cc3c(cc1O)O[C@@H](c1ccc(O)cc1)[C@@H]3c1cc(O)cc(O)c1)CC2=O` (stereo partly shown) [Sophoraflavanone H], the remaining activity at 17 µM at SARS-CoV-2 M^pro (setting [8]) was above 80%.

Turning to `C=C(C)[C@H](CC=C(C)C)Cc1c(O)cc(O)c2c1OC(c1cc3c(cc1O)O[C@@H](c1ccc(O)cc1)[C@@H]3c1cc(O)cc(O)c1)CC2=O` (stereo partly shown) [Sophoraflavanone I], on SARS-CoV-2 M^pro (setting [8]), the remaining activity at 17 µM was 10 to 80%.

`O=C1CC(c2ccc(O)cc2O)Oc2cc(O)cc(O)c21` (stereo not shown) [Steppogenin]: the remaining activity at 17 µM at SARS-CoV-2 M^pro (setting [8]) was above 80%.

Regarding `COc1c(-c2ccc(O)cc2)oc2cc(O)c(CC=C(C)C)c(O)c2c1=O` [Topazolin], the remaining activity at 17 µM on SARS-CoV-2 M^pro (setting [8]) is above 80%.

Regarding `COc1c(-c2cc(O)c(O)c(CC=C(C)C)c2)oc2cc(O)cc(O)c2c1=O` [Uralenol-3-methylether], the remaining activity at 17 µM on SARS-CoV-2 M^pro (setting [8]) is above 80%.

For `CC(C)=CCc1cc(-c2oc3cc(O)cc(O)c3c(=O)c2O)cc(O)c1O` [Uralenol], the remaining activity at 17 µM at SARS-CoV-2 M^pro (setting [8]) was above 80%.

For the compound `CC(C)=CCc1c(O)cc2occ(-c3ccc(O)cc3)c(=O)c2c1O` [Wighteone], the remaining activity at 17 µM at SARS-CoV-2 M^pro (setting [8]) is above 80%.

Consider `CC(C)=CCc1cc([C@@H]2CC(=O)c3c(O)cc(O)cc3O2)cc(CC=C(C)C)c1O` [abyssinone V], for which the remaining activity at 17 µM at SARS-CoV-2 M^pro (setting [8]) is above 80%.

For the compound `O=c1cc(-c2ccc(O)cc2)oc2cc(O)cc(O)c12` [apigenin], the Toxicity in cells result in the data set on Vero E6 cells [6] is on record as “some toxicity”. Besides, at SARS-CoV-2 M^pro, the “Mpro inhibitory activity” value was “somewhat less potent”. This compound also showed a pIC50 against SARS-CoV-2 M^pro (IC50 for inhibition of Mpro) of 4.76. Further, on Mpro [2], the “Reversibility of Mpro inhibition by dilution” value is listed as “completely reversible”. Moreover, the “Inhibition … (in words)” value with SARS-CoV-2 [4] is “inhibits viral replication at concentrations at doses that are not toxic”. Besides, the “Inhibition of SARS-CoV-2 replication at 50 μM” value in the data set on SARS-CoV-2 [4] (50 μM) is given as “somewhat better than baicalein”.

As for `COc1ccc(-c2cc(=O)c3c(O)cc(O)cc3o2)cc1-c1c(O)cc(O)c2c(=O)cc(-c3ccc(O)cc3)oc12` [bilobetin], on SARS-CoV-2 M^pro, the “Mpro inhibitory activity” value is given as “comparable to amentoflavone”.

Take `COc1c(-c2ccc(O)c(O)c2)oc2c(CC=C(C)C)c(O)c(CC=C(C)C)c(O)c2c1=O` [broussoflavonol B]: on SARS-CoV-2 M^pro (setting [8]), the remaining activity at 17 µM was above 80%.

For the compound `CC(C)=CCc1cc(-c2oc3cc(O)c(CC=C(C)C)c(O)c3c(=O)c2O)cc(O)c1O` [broussonol E], the remaining activity at 17 µM at SARS-CoV-2 M^pro (setting [8]) is above 80%.

On to `CC(C)=CCc1cc([C@H]2Oc3cc(O)cc(O)c3C(=O)[C@@H]2O)c(O)c(CC=C(C)C)c1O` [cathayanon I], for which the remaining activity at 17 µM on SARS-CoV-2 M^pro (setting [8]) was in the range of 10 to 80%.

As to `CC(C)=CCc1c2c(c(O)c3c(=O)c(-c4ccc(O)c(O)c4)coc13)CC(C(C)(C)O)O2` (stereo not shown) [furowanin A], the remaining activity at 17 µM at SARS-CoV-2 M^pro (setting [7]) lay in the range of 10 to 80%. For the same compound, at SARS-CoV-2 M^pro (setting [9]), the pIC50 was 5.15.

For `CC(C)=CCc1cc(-c2coc3cc(O)cc(O)c3c2=O)cc(O)c1O` [glycyrrhisoflavone], the remaining activity at 17 µM at SARS-CoV-2 M^pro (setting [7]) was above 80%.

Turning to `C=C(C)[C@H](CC=C(C)C)Cc1c(O)c(CC=C(C)C)c(O)c2c1O[C@H](c1ccc(O)cc1O)[C@@H](O)C2=O` [kushenol M], the remaining activity at 17 µM on SARS-CoV-2 M^pro (setting [8]) was above 80%.

`CC(C)=CCC/C(C)=C/Cc1cc(C2CC(=O)c3c(O)cc(O)cc3O2)c(O)cc1O` (stereo not shown) [kuwanon E]: the remaining activity at 17 µM on SARS-CoV-2 M^pro (setting [8]) was in the range of 10 to 80%.

On to `C=C(C)C(O)Cc1c(O)c(CC=C(C)C)c2occ(-c3ccc(O)c(O)c3)c(=O)c2c1O` (stereo not shown) [millewanin G], for which the remaining activity at 17 µM at SARS-CoV-2 M^pro (setting [8]) was above 80%.

On to `C=C(C)C(O)Cc1c(O)c(CC=C(C)C)c(O)c2c(=O)c(-c3ccc(O)c(O)c3)coc12` (stereo not shown) [millewanin H], for which the remaining activity at 17 µM at SARS-CoV-2 M^pro (setting [8]) is 10 to 80%.

As to `O=c1c(O)c(-c2ccc(O)cc2O)oc2cc(O)cc(O)c12` [morin], at SARS-CoV-2 M^pro (setting [7]), the remaining activity at 17 µM is above 80%.

`O=c1c(O)c(-c2cc(O)c(O)c(O)c2)oc2cc(O)cc(O)c12` [myricetin, reference compound]: the “Reversibility of Mpro inhibition by dilution” value at Mpro [2] was “resistant to dilution”. Further, the “Inhibition … (in words)” value in the data set with SARS-CoV-2 [4] is “somewhat less potently than PGHG, baicalein, or apigenin”; in the data set on SARS-CoV-2 [4] (listed as Myricetin) it was “inhibitory activity only at 100 μM”.

As to `CC(C)=CCc1c(O)cc(O)c2c1O[C@H](c1ccc(O)cc1)[C@@H](O)C2=O` [neophellamuretin], at SARS-CoV-2 M^pro (setting [8]), the remaining activity at 17 µM was above 80%.

Consider `CC(C)=CCC/C(C)=C/Cc1c(O)ccc(C2CC(=O)c3c(O)cc(O)cc3O2)c1O` (stereo not shown) [sanggenol A], for which the remaining activity at 17 µM at SARS-CoV-2 M^pro (setting [8]) lay in the range of 10 to 80%.

Take `CC(C)=CCC/C(C)=C\Cc1c(O)cc(O)c2c1O[C@H](c1ccc(O)cc1O)CC2=O` [sophoraflavanone C]: on SARS-CoV-2 M^pro (setting [7]), the remaining activity at 17 µM is 10 to 80%. In addition, at SARS-CoV-2 M^pro (setting [9]), the pIC50 was 4.20.

For the compound `CC(C)=CCc1c2c(c(O)c3c(=O)c(-c4ccc(O)cc4)coc13)C=CC(C)(C)O2` [warangalone], at SARS-CoV-2 M^pro (setting [8]), the remaining activity at 17 µM lay within 10 to 80%.
